Experimental data reported in patent US10994015B2, “EGFR proteolysis targeting chimeric molecules and associated methods of use” (Arvinas Operations, Inc., priority 2016, dated 2021).

Key:
[1] = molecular target: EGFR L858R/T790M double mutant (H1975) (Homo sapiens (Human), UniProt P00533, L858R/T790M); assay: EGFR protein degradation assay (Western blot); assay type: cell-based; settings: 72 hours, 300 nM to 10 nM
Procedure, shortened: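 EGFR protein levels were measured by immunoblotting. Lysate protein was quantified by BCA, and 10 μg per sample was separated by SDS/PAGE at 165V for 2 hours and transferred to PVDF. Membranes were blocked in TBS-T with 5% milk for 1 hour, probed overnight at 4° C with EGFR and tubulin antibodies, then secondary antibody for 1 hour, and detected by ECL on a Chemidoc.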

EGFR L858R/T790M = EGFR L858R/T790M (Homo sapiens (Human), UniProt P00533, L858R/T790M); assay: TR-FRET assay for ERBB kinases; assay type: biochemical; settings: geometric mean if measured more than once
Procedure, shortened: (§1)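 Detection: LanthaScreen Tb-pY20 antibody with EDTA, emission at 490 and 520 nm after 340 nm excitation. Reaction: 10 min at room temperature following 10 min compound–enzyme pre-incubation, started by a substrate mix of 3 mM ATP and 30 uM fluorescein-poly-GluTyr in HEPES pH 7.5.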

EGFR L858R/T790M/C797S = EGFR L858R/T790M/C797S (Homo sapiens (Human), UniProt P00533, C797S/L858R/T790M); assay: TR-FRET assay for ERBB kinases; assay type: biochemical; settings: geometric mean if measured more than once
Sequence of EGFR L858R/T790M/C797S (P00533 25-1210 T790M/C797S/L858R): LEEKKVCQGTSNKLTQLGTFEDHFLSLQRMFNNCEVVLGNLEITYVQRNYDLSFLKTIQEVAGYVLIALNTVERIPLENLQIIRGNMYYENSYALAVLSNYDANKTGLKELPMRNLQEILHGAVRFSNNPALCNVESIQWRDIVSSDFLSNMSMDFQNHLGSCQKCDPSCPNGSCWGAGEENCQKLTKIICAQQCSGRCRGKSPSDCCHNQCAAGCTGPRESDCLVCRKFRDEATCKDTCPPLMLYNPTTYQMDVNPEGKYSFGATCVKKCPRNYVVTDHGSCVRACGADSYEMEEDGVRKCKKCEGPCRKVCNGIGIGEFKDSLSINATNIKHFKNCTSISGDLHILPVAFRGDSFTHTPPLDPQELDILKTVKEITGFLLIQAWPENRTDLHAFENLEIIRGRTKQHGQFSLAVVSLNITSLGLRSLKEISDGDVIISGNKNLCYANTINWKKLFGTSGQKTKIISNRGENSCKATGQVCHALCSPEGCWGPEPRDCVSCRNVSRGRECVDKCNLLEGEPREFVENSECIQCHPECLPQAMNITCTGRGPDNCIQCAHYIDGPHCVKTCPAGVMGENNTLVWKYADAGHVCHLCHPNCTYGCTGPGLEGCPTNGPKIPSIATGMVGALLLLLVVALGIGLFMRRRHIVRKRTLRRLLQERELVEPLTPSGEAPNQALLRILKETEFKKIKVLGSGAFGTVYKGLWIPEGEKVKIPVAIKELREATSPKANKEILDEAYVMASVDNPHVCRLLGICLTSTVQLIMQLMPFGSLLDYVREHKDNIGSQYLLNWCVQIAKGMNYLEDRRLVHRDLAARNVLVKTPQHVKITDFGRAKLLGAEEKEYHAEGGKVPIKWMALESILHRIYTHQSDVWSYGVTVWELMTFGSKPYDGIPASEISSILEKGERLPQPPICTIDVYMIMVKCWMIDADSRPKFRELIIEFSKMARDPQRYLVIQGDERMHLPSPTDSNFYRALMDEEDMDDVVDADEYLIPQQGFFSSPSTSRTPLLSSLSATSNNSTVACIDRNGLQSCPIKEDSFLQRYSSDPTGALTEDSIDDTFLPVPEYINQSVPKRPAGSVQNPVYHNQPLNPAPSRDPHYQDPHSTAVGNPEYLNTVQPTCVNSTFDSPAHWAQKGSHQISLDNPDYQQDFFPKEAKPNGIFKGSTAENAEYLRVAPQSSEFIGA
Procedure, shortened: as §1

EGFR WT = EGFR WT (Homo sapiens (Human), UniProt P00533); assay: TR-FRET assay for ERBB kinases; assay type: biochemical; settings: geometric mean if measured more than once
Procedure, shortened: as §1

HER3 = HER3 (Homo sapiens (Human), UniProt P21860); assay: TR-FRET assay for ERBB kinases; assay type: biochemical; settings: geometric mean if measured more than once
Sequence of HER3 (P21860 20-1342, species assumed): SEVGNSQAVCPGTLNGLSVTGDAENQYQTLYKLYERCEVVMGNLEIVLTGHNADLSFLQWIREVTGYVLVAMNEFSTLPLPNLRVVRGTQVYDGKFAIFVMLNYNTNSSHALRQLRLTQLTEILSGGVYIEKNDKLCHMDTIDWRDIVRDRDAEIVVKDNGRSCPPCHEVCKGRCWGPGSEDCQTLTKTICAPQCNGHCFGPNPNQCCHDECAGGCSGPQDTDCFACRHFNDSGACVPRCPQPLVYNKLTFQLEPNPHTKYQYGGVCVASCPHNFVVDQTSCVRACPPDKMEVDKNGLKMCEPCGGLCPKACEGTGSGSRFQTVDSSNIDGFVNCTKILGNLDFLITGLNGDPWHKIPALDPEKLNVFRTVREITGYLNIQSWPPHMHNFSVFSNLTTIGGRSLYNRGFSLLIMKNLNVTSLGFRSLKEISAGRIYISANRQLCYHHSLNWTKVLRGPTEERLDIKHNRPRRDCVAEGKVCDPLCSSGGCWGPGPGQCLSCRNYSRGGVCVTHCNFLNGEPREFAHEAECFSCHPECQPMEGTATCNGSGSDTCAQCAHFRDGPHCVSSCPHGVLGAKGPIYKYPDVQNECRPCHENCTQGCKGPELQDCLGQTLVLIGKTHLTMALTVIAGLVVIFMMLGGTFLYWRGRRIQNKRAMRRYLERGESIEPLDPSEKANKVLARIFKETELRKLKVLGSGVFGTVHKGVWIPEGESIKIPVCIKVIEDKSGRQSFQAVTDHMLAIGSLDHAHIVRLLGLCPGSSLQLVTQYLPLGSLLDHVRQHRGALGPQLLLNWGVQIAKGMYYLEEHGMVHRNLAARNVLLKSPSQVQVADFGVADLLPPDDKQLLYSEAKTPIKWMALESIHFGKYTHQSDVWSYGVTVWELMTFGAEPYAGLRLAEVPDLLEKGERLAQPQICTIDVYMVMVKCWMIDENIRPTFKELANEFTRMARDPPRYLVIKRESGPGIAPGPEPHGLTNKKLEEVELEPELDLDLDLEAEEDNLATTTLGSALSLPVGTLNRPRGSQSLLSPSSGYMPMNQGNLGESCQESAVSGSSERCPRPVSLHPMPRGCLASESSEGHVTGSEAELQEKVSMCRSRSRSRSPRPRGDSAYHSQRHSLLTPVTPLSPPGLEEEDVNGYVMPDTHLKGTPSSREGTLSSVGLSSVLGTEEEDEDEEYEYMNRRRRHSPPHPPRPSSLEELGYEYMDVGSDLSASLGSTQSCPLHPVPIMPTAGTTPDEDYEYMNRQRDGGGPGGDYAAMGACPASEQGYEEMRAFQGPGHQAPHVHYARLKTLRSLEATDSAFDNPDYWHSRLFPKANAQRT

EGFR Exon20NPG = EGFR Exon20NPG (Homo sapiens (Human), UniProt P00533, INS770NPG); assay: TR-FRET assay for ERBB kinases; assay type: biochemical; settings: geometric mean if measured more than once
Procedure, shortened: (§2)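 Phosphorylation of fluorescein-labeled poly-GluTyr read as TR-FRET using Tb-pY20 antibody after EDTA stop, with 340 nm excitation. Kinase reaction ran 10 min at room temperature following 10 min compound pre-incubation; substrate mix held 3 mM ATP and 30 µM peptide before addition. Buffer was HEPES pH 7.5.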

[2] = molecular target: EGFR L858R/T790M/C797S triple mutant (H520*) (Homo sapiens (Human), UniProt P00533, C797S/L858R/T790M); assay: EGFR protein degradation assay (Western blot); assay type: cell-based; settings: 72 hours, 300 nM to 10 nM
Sequence of EGFR L858R/T790M/C797S triple mutant (H520*) (P00533 25-1210 T790M/C797S/L858R): as the sequence (P00533 25-1210 T790M/C797S/L858R) above
Procedure, shortened: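 EGFR loss in the triple-mutant line measured by immunoblot: clarified lysates normalised by BCA, run on 4-12% Bis-Tris gels, blotted to PVDF, probed with HRP anti-rabbit secondary. Before lysis, cells were dosed from 1, 0.3, 0.1, 0.03 and 0.01 mM DMSO stocks (not final concentrations) after overnight culture at 37° C.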

EGFR Δ19/746/750 = EGFR Δ19/746/750 (Homo sapiens (Human), UniProt P00533, DEL746-750); assay: TR-FRET assay for ERBB kinases; assay type: biochemical; settings: geometric mean if measured more than once
Sequence of EGFR Δ19/746/750 (P00533 other isoform, or with tags, fused parts or gaps del 1-694/del 746-750 limits assumed): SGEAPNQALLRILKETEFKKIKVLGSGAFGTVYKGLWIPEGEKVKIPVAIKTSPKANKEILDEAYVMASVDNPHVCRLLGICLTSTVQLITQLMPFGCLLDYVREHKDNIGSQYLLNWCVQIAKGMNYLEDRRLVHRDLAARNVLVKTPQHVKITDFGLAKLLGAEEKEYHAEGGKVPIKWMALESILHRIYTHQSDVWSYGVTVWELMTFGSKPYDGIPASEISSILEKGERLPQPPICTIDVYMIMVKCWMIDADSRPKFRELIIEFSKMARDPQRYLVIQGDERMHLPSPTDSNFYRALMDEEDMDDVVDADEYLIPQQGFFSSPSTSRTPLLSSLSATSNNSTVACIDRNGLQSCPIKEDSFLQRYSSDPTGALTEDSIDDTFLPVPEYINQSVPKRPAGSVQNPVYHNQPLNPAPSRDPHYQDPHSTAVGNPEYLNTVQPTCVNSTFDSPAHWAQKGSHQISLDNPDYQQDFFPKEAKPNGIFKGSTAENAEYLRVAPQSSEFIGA
Procedure, shortened: as §2

EGFR Δ19/746/750 T790M = EGFR Δ19/746/750 T790M (Homo sapiens (Human), UniProt P00533, DEL746-750/T790M); assay: TR-FRET assay for ERBB kinases; assay type: biochemical; settings: geometric mean if measured more than once
Sequence of EGFR Δ19/746/750 T790M (P00533 other isoform, or with tags, fused parts or gaps T790M/del 1-694/del 746-750 limits assumed): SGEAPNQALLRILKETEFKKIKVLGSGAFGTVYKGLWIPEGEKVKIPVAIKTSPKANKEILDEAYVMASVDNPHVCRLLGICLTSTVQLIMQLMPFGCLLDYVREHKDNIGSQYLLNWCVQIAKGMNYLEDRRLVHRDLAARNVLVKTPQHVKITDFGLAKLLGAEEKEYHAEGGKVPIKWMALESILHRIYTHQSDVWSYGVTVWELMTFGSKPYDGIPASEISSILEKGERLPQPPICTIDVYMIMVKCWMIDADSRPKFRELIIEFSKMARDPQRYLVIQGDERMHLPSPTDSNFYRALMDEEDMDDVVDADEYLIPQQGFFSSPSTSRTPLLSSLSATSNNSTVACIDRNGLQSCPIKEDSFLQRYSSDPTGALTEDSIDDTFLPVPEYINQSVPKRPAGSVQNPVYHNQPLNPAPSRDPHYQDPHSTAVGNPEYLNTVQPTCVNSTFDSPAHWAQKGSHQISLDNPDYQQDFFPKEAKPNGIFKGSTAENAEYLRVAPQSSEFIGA
Procedure, shortened: as §2

[3] = molecular target: EGFR-wt (MDA-MB-231 or MCF7 or A549 or OVCAR8) (Homo sapiens (Human), UniProt P00533); assay: EGFR protein degradation assay (Western blot); assay type: cell-based; settings: 72 hours, 300 nM to 10 nM
Procedure, shortened: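 EGFR degradation was assessed by Western blot. Cells expressing the appropriate EGFR were seeded in 6-well plates (300,000 cells per well) and adhered overnight. Media was removed, cells were washed with cold phosphate-buffered saline, scraped into 400 μl Cell Signaling lysis buffer plus protease inhibitor cocktail, and spun once at 10 000 rpm for 10 minutes. After BCA quantification, loading buffer and reducing agent were added. Gels loaded with 10 μg protein ran at 165V for 2 hours, and bands were visualized by chemiluminescence.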

Structure (SMILES)	EGFR protein remaining, EGFR L858R/T790M double mutant [1]	IC50 (EGFR L858R/T790M) [µM]	IC50 (EGFR L858R/T790M/C797S) [µM]	IC50 (EGFR WT) [µM]	IC50 (HER3) [µM]	IC50 (EGFR Exon20NPG) [µM]	EGFR protein remaining, EGFR L858R/T790M/C797S triple mutant [2]	IC50 (EGFR Δ19/746/750) [µM]	IC50 (EGFR Δ19/746/750 T790M) [µM]	EGFR protein remaining, EGFR-wt [3]
COC1CCN(c2nccc(Nc3cc4c(cn3)nc(COCCOCCOCCOCCOCC(=O)N[C@H](C(=O)N3C[C@H](O)C[C@H]3C(=O)N[C@@H](C)c3ccc(-c5scnc5C)cc3)C(C)(C)C)n4C(C)C)n2)CC1 [Example 81, (2S,4R)-1-((S)-18-(tert-butyl)-1-(1-isopropyl-6-((2-(4-methoxypiperidin-1-yl)pyrimidin-4-yl)amino)-1H-imidazo[4,5-c]pyridin-2-yl)-16-oxo-2,5,8,11,14-pentaoxa-17-azanonadecan-19-oyl)-4-hydroxy-N—((S)-1-(4-(4-methylthiazol-5-yl)phenyl)ethyl)pyrrolidine-2-carboxamide]	C (>80% EGFR protein remaining after 72 hours of incubation with the test compound at a concentration of 300 nM)	8.6	> 30	2.4	> 30	7.1				
O=C1CCC(N2C(=O)c3ccc(NCCOCCOCCOCC#Cc4cccc5c4C(=O)N(C(C(=O)Nc4nccs4)c4cc(F)ccc4O)C5)cc3C2=O)C(=O)N1 (stereo not shown) [Example 82, 2-(7-(3-(2-(2-(2-((2-(2,6-dioxopiperidin-3-yl)-1,3-dioxoisoindolin-5-yl)amino)ethoxy)ethoxy)ethoxy)prop-1-yn-1-yl)-1-oxoisoindolin-2-yl)-2-(5-fluoro-2-hydroxyphenyl)-N-(thiazol-2-yl)acetamide]	C (>80% EGFR protein remaining after 72 hours of incubation with the test compound at a concentration of 300 nM)	0.77	0.45	3.8	> 30	> 30				
COC1CCN(c2nccc(Nc3cc4c(cn3)nc(COCCON3CCN(c5ccc6c(c5)C(=O)N(C5CCC(=O)NC5=O)C6=O)CC3)n4C(C)C)n2)CC1 (stereo not shown) [compound 72]	C (>80% EGFR protein remaining after 72 hours of incubation with the test compound at a concentration of 300 nM)	> 30	30	> 30	> 30	22				
COC1CCN(c2nccc(Nc3cc4c(cn3)nc(COCCOCCON3CCN(c5ccc6c(c5)C(=O)N(C5CCC(=O)NC5=O)C6=O)CC3)n4C(C)C)n2)CC1 (stereo not shown) [compound 74]	C (>80% EGFR protein remaining after 72 hours of incubation with the test compound at a concentration of 300 nM)	> 30	10	> 30	> 30	> 30				
COC1CCN(c2nccc(Nc3cc4c(cn3)nc(COCCOCCOCCOCCON3CCN(c5ccc6c(c5)C(=O)N(C5CCC(=O)NC5=O)C6=O)CC3)n4C(C)C)n2)CC1 (stereo not shown) [compound 75]	C (>80% EGFR protein remaining after 72 hours of incubation with the test compound at a concentration of 300 nM)	> 30	> 30	> 30	> 30	> 30				
COC1CCN(c2nccc(Nc3cc4c(cn3)nc(COCCOCC(=O)N[C@H](C(=O)N3C[C@@H](O)C[C@@H]3C(=O)N[C@@H](C)c3ccc(-c5scnc5C)cc3)C(C)(C)C)n4C(C)C)n2)CC1 [compound 77]	C (>80% EGFR protein remaining after 72 hours of incubation with the test compound at a concentration of 300 nM)	9.1	9.4	24	> 30	12				
COC1CCN(c2nccc(Nc3cc4c(cn3)nc(COCCOCCOCCOCC(=O)N[C@H](C(=O)N3C[C@@H](O)C[C@@H]3C(=O)N[C@@H](C)c3ccc(-c5scnc5C)cc3)C(C)(C)C)n4C(C)C)n2)CC1 [compound 79]	C (>80% EGFR protein remaining after 72 hours of incubation with the test compound at a concentration of 300 nM)	29	7.6	> 30	> 30	> 30				
O=C1CCC(N2C(=O)c3ccc(NCCOCCOCC#Cc4cccc5c4C(=O)N(C(C(=O)Nc4nccs4)c4cc(F)ccc4O)C5)cc3C2=O)C(=O)N1 (stereo not shown) [compound 83]	C (>80% EGFR protein remaining after 72 hours of incubation with the test compound at a concentration of 300 nM)	2.5	1.2	3	> 30	> 30				
Cc1ncsc1-c1ccc([C@H](C)NC(=O)[C@@H]2C[C@@H](O)CN2C(=O)[C@@H](NC(=O)COCCOCCOCCN2CCN(CCOCC#Cc3cccc4c3C(=O)N(C(C(=O)Nc3nccs3)c3cc(F)ccc3O)C4)CC2)C(C)(C)C)cc1 (stereo partly shown) [compound 310]		0.11	0.022	0.14			B (≤80% and >50% EGFR protein remaining after 72 hours of incubation with the test compound at a concentration between 300 nM and 10 nM)	6	8.4	
Cc1ncsc1-c1ccc([C@H](C)NC(=O)[C@@H]2C[C@@H](O)CN2C(=O)[C@@H](NC(=O)COCCN2CCN(CCOCCOCCOCC#Cc3cccc4c3C(=O)N(C(C(=O)Nc3nccs3)c3cc(F)ccc3O)C4)CC2)C(C)(C)C)cc1 (stereo partly shown) [compound 311]		0.065	0.016	0.097			B (≤80% and >50% EGFR protein remaining after 72 hours of incubation with the test compound at a concentration between 300 nM and 10 nM)	9	4.6	
CC(C)n1nc(N2CCN(CC3CCN(c4ccc5c(c4)C(=O)N(C4CCC(=O)NC4=O)C5=O)CC3)CC2)c2cnc(Nc3ccnc(-c4cnn(S(=O)(=O)C5CC5)c4)n3)cc21 (stereo not shown) [compound 312]		0.00067	0.00035	0.095			B (≤80% and >50% EGFR protein remaining after 72 hours of incubation with the test compound at a concentration between 300 nM and 10 nM)	0.17	0.0049	
CC(C)n1nc(N2CC(CN3CCN(CC4CCN(c5ccc6c(c5)C(=O)N(C5CCC(=O)NC5=O)C6=O)CC4)CC3)C2)c2cnc(Nc3ccnc(-c4cnn(S(=O)(=O)C5CC5)c4)n3)cc21 (stereo not shown) [compound 313]		0.00029	0.00026	0.0014			A (≤50% EGFR protein remaining after 72 hours of incubation with the test compound at a concentration between 300 nM and 10 nM)	0.0075	0.0016	C (>80% EGFR protein remaining after 72 hours of incubation with the test compound at a concentration of 300 nM)
CC(C)n1nc(N2CC(CN3CCN(CC4CCN(c5ccc6c(c5)C(=O)N(C5CCC(=O)NC5=O)C6=O)CC4)CC3)C2)c2cnc(Nc3ccnc(-c4cnn(S(=O)(=O)C5CC5)c4)n3)cc21 (stereo not shown) [compound 314]		0.098	0.02	0.089			C (>80% EGFR protein remaining after 72 hours of incubation with the test compound at a concentration of 300 nM)	10	5.2	
CC(C)n1nc(N2CC(CN[C@H]3C[C@H](Oc4ccc5c(c4)C(=O)N(C4CCC(=O)NC4=O)C5=O)C3)C2)c2cnc(Nc3ccnc(-c4cnn(S(=O)(=O)C5CC5)c4)n3)cc21 (stereo partly shown) [compound 319]		0.0023	0.0008	0.0042			A (≤50% EGFR protein remaining after 72 hours of incubation with the test compound at a concentration between 300 nM and 10 nM)	0.0013	0.0003	
